Results: PubChem BioAssay AID1259407 (Chemical Carcinogenesis Research Information System (CCRIS), 2018)
Active and inactive are the calls of the source. No rule for the calls is given here.

Tested on: CCRIS mutagenicity, Ames/micronucleus/aberration tests
Assay: CCRIS mutagenicity studies
[1] = Test System: AMES SALMONELLA TYPHIMURIUM, Strain/Indicator: TA98, Metabolic Activation: NONE, Method: STANDARD PLATE
[2] = Test System: AMES SALMONELLA TYPHIMURIUM, Strain/Indicator: TA98, Metabolic Activation: RAT, LIVER, S-9, AROCLOR 1254, Method: PREINCUBATION
[3] = Test System: AMES SALMONELLA TYPHIMURIUM, Strain/Indicator: TA98, Metabolic Activation: RAT, LIVER, S-9, AROCLOR 1254, Method: STANDARD PLATE
[4] = Test System: AMES SALMONELLA TYPHIMURIUM, Strain/Indicator: TA100, Metabolic Activation: NONE, Method: PREINCUBATION
[5] = Test System: AMES SALMONELLA TYPHIMURIUM, Strain/Indicator: TA100, Metabolic Activation: NONE, Method: STANDARD PLATE
[6] = Test System: AMES SALMONELLA TYPHIMURIUM, Strain/Indicator: TA100, Metabolic Activation: RAT, LIVER, S-9, AROCLOR 1254, Method: STANDARD PLATE

O=c1[nH]c(=O)[nH]c(=O)[nH]1
mutagenic call (Test System: AMES SALMONELLA TYPHIMURIUM, Strain/Indicator: TA98, Metabolic Activation: HAMSTER, LIVER, S-9, AROCLOR 1254, Method: PREINCUBATION): inactive; negative
mutagenic call (Test System: AMES SALMONELLA TYPHIMURIUM, Strain/Indicator: TA98, Metabolic Activation: NONE, Method: PREINCUBATION): inactive; negative
mutagenic call [1]: inactive; negative
mutagenic call [2]: inactive; negative
mutagenic call [3]: inactive; negative
mutagenic call (Test System: AMES SALMONELLA TYPHIMURIUM, Strain/Indicator: TA100, Metabolic Activation: HAMSTER, LIVER, S-9, AROCLOR 1254, Method: PREINCUBATION): inactive; negative
mutagenic call [4]: inactive; negative
mutagenic call [5]: inactive; negative
mutagenic call (Test System: AMES SALMONELLA TYPHIMURIUM, Strain/Indicator: TA100, Metabolic Activation: RAT, LIVER, S-9, AROCLOR 1254, Method: PREINCUBATION): inactive; negative
mutagenic call [6]: inactive; negative
mutagenic call (Test System: AMES SALMONELLA TYPHIMURIUM, Strain/Indicator: TA1535, Metabolic Activation: HAMSTER, LIVER, S-9, AROCLOR 1254, Method: PREINCUBATION): inactive; negative
mutagenic call (Test System: AMES SALMONELLA TYPHIMURIUM, Strain/Indicator: TA1535, Metabolic Activation: NONE, Method: PREINCUBATION): inactive; negative
mutagenic call (Test System: AMES SALMONELLA TYPHIMURIUM, Strain/Indicator: TA1535, Metabolic Activation: NONE, Method: STANDARD PLATE): inactive; negative
mutagenic call (Test System: AMES SALMONELLA TYPHIMURIUM, Strain/Indicator: TA1535, Metabolic Activation: RAT, LIVER, S-9, AROCLOR 1254, Method: PREINCUBATION): inactive; negative
mutagenic call (Test System: AMES SALMONELLA TYPHIMURIUM, Strain/Indicator: TA1535, Metabolic Activation: RAT, LIVER, S-9, AROCLOR 1254, Method: STANDARD PLATE): inactive; negative
mutagenic call (Test System: AMES SALMONELLA TYPHIMURIUM, Strain/Indicator: TA1537, Metabolic Activation: HAMSTER, LIVER, S-9, AROCLOR 1254, Method: PREINCUBATION): inactive; negative
mutagenic call (Test System: AMES SALMONELLA TYPHIMURIUM, Strain/Indicator: TA1537, Metabolic Activation: NONE, Method: PREINCUBATION): inactive; negative
mutagenic call (Test System: AMES SALMONELLA TYPHIMURIUM, Strain/Indicator: TA1537, Metabolic Activation: NONE, Method: STANDARD PLATE): inactive; negative
mutagenic call (Test System: AMES SALMONELLA TYPHIMURIUM, Strain/Indicator: TA1537, Metabolic Activation: RAT, LIVER, S-9, AROCLOR 1254, Method: PREINCUBATION): inactive; negative
mutagenic call (Test System: AMES SALMONELLA TYPHIMURIUM, Strain/Indicator: TA1537, Metabolic Activation: RAT, LIVER, S-9, AROCLOR 1254, Method: STANDARD PLATE): inactive; negative
mutagenic call (Test System: MOUSE LYMPHOMA, Strain/Indicator: L5178Y (TK+/TK-), Metabolic Activation: NONE, Method: SUSPENSION/PLATE): inactive; negative
mutagenic call (Test System: MOUSE LYMPHOMA, Strain/Indicator: L5178Y (TK+/TK-), Metabolic Activation: RAT, LIVER, S-9, AROCLOR 1254, Method: SUSPENSION/PLATE): inactive; negative

CNc1ccnc(-c2cc(N(C)C)ccn2)c1.CNc1ccnc(-c2cc(N(C)C)ccn2)c1.F[P-](F)(F)(F)(F)F.F[P-](F)(F)(F)(F)F.F[P-](F)(F)(F)(F)F.F[P-](F)(F)(F)(F)F.[NH3+]Cc1ccnc(-c2cc(C[NH3+])ccn2)c1.[Os+2]
mutagenic call [1]: inactive; negative
mutagenic call [3]: inactive; negative
mutagenic call [5]: inactive; negative
mutagenic call [6]: inactive; negative

Brc1ccc2c(c1)[C@H]1O[C@H]1[C@H]1CCCC[C@H]21
mutagenic call [1]: inactive; negative
mutagenic call [5]: inactive; negative

COc1cc2nc3cc(N)ccc3nc2cc1N
mutagenic call (Test System: AMES SALMONELLA TYPHIMURIUM, Strain/Indicator: TA98, Metabolic Activation: S-9, Method: SUSPENSION/PLATE): active; positive

c1ccc2c(c1)ccc1nc3c4c(c5ccccc5c3cc12)O4
mutagenic call (Test System: AMES SALMONELLA TYPHIMURIUM, Strain/Indicator: TA100, Metabolic Activation: GUINEA PIG, LIVER, S-9, 3-METHYLCHOLANTHRENE, Method: STANDARD PLATE): active; positive

Cc1ccc(NO)cc1
mutagenic call [2]: inactive; negative
mutagenic call [4]: active; positive
mutagenic call (Test System: AMES SALMONELLA TYPHIMURIUM, Strain/Indicator: TA100, Metabolic Activation: RAT, LIVER, S-9, PCB, Method: PREINCUBATION): active; positive
mutagenic call (Test System: E. COLI, Strain/Indicator: WP2 UVRA, Metabolic Activation: NONE, Method: FLUCTUATION TEST): active; positive

CC(=O)C[C@@H]1CCC(=O)CCC(=O)O[C@H](CC(C)=O)CCC(=O)CCC(=O)O1
mutagenic call (Test System: CHINESE HAMSTER V-79, Strain/Indicator: V-79 (HPRT)/6-THIOGUANINE, Metabolic Activation: NONE): inactive; negative

Nc1ccc2c(c1)-c1ccccc1C2
mutagenic call (Test System: AMES SALMONELLA TYPHIMURIUM, Strain/Indicator: TA98, Metabolic Activation: RAT, LIVER, S-9, AROCLOR 1254 (2 OR 4%), Method: STANDARD PLATE): active; positive
mutagenic call (Test System: AMES SALMONELLA TYPHIMURIUM, Strain/Indicator: TA100, Metabolic Activation: RAT, LIVER, S-9, AROCLOR 1254 (4%), Method: STANDARD PLATE): active; positive
mutagenic call (Test System: AMES SALMONELLA TYPHIMURIUM, Strain/Indicator: TA1535, Metabolic Activation: RAT, LIVER, S-9, AROCLOR 1254 (4%), Method: STANDARD PLATE): inactive; negative
mutagenic call (Test System: AMES SALMONELLA TYPHIMURIUM, Strain/Indicator: TA1537, Metabolic Activation: RAT, LIVER, S-9, AROCLOR 1254 (4%), Method: STANDARD PLATE): active; positive

Cc1ccc2c3c(cc4ccccc42)-c2ccccc2-c13
mutagenic call (Test System: AMES SALMONELLA TYPHIMURIUM, Strain/Indicator: TA100, Metabolic Activation: RAT, LIVER, S-9, AROCLOR 1254): active; positive
